Results taken from ChEMBL document CHEMBL5518170, “Dual target PARP1/EZH2 inhibitors inducing excessive autophagy and producing synthetic lethality for triple-negative breast cancer therapy” (Eur J Med Chem, 2024).

How the values were obtained:
MDA-MB-231 [1] = experiment: cells; conditions: Homo sapiens, MDA-MB-231, 72 h
Description: Cytotoxicity against human MDA-MB-231 cells incubated for 72 hrs by MTT assay

MCF-10A [2] = experiment: cells; conditions: Homo sapiens, 72 h
Description: Cytotoxicity against human MCF-10A cells incubated for 72 hrs by MTT assay

BT-549 [3] = experiment: cells; conditions: Homo sapiens, BT-549, 72 h
Description: Cytotoxicity against human BT-549 cells incubated for 72 hrs by MTT assay

MCF-10A [4] = experiment: cells; conditions: Homo sapiens, 72 h; remark: listed apart in the source
MDA-MB-231 [5] = experiment: Synergistic antitumor activity against human MDA-MB-231 cells xenografted in BALB/c mouse assessed as tumor growth inhibition at 50 mg/kg,ip administrated in presence of Niraparib for 21 consecutive days; assay type: functional; conditions: read-out: TGI
BT-549 [6] = experiment: cells; conditions: Homo sapiens, BT-549, 72 h; remark: listed apart in the source
MDA-MB-231 [7] = experiment: cells; conditions: Homo sapiens, MDA-MB-231, 72 h; remark: listed apart in the source

Row | SMILES | IC50 (MDA-MB-231 [1]) [µM] | IC50 (BT-549 [3]) [µM] | IC50 (BT-549 [6]) [µM] | IC50 (MDA-MB-231 [7]) [µM] | IC50 (MCF-10A [2]) [µM] | IC50 (MCF-10A [4]) [µM] | inhibition in vivo at 50 mg/kg (MDA-MB-231 [5]) [%]
1 | CCNc1cc(-c2ccc(CC(=O)N3CCC(c4nc5c(C(N)=O)cccc5[nH]4)CC3)cc2)cc(C(=O)NCc2c(C)cc(C)[nH]c2=O)c1C | > 40 | > 40 |  |  | > 40 |  | 
2 | CCNc1cc(-c2ccc(CC(=O)N3CC(c4nc5c(C(N)=O)cccc5[nH]4)C3)cc2)cc(C(=O)NCc2c(C)cc(C)[nH]c2=O)c1C | > 40 | > 40 |  |  | > 40 |  | 
3 | CCNc1cc(-c2ccc(CC(=O)Nc3ccc(-c4nc5c(C(N)=O)cccc5[nH]4)cc3)cc2)cc(C(=O)NCc2c(C)cc(C)[nH]c2=O)c1C | > 40 | > 40 |  |  | > 40 |  | 
4 | CCNc1cc(-c2ccc(CC(=O)NCCCCc3nc4c(C(N)=O)cccc4[nH]3)cc2)cc(C(=O)NCc2c(C)cc(C)[nH]c2=O)c1C | > 40 | > 40 |  |  | > 40 |  | 
5 | CCNc1cc(-c2ccc(CC(=O)NCCCc3nc4c(C(N)=O)cccc4[nH]3)cc2)cc(C(=O)NCc2c(C)cc(C)[nH]c2=O)c1C | > 40 | 37.2 |  |  | > 40 |  | 
6 | CCNc1cc(-c2ccc(CC(=O)NCCc3nc4c(C(N)=O)cccc4[nH]3)cc2)cc(C(=O)NCc2c(C)cc(C)[nH]c2=O)c1C | > 40 | 31.5 |  |  | > 40 |  | 
7 | CCNc1cc(-c2ccc(CC(=O)N3CC[C@@H](c4nc5c(C(N)=O)cccc5[nH]4)C3)cc2)cc(C(=O)NCc2c(C)cc(C)[nH]c2=O)c1C | > 40 | 22.6 |  |  | > 40 |  | 

The next lines start with results.

Row | IC50 (MDA-MB-231 [1]) [µM] | IC50 (BT-549 [3]) [µM] | IC50 (BT-549 [6]) [µM] | IC50 (MDA-MB-231 [7]) [µM] | SMILES | IC50 (MCF-10A [2]) [µM] | IC50 (MCF-10A [4]) [µM] | inhibition in vivo at 50 mg/kg (MDA-MB-231 [5]) [%]
8 | > 40 | > 40 |  |  | CCNc1cc(-c2ccc(CC(=O)N3CCC(Cc4nc5c(C(N)=O)cccc5[nH]4)CC3)cc2)cc(C(=O)NCc2c(C)cc(C)[nH]c2=O)c1C | > 40 |  | 
9 | 35.8 | 35.2 |  |  | O=C(c1cc(Cc2n[nH]c(=O)c3ccccc23)ccc1F)N1CCN(C(=O)C2CC2)CC1 [OLAPARIB] | > 40 |  | 
10 | 33.7 | 23.5 |  |  | CCNc1cc(-c2ccc(CC(=O)N3CCC[C@H](c4nc5c(C(N)=O)cccc5[nH]4)C3)cc2)cc(C(=O)NCc2c(C)cc(C)[nH]c2=O)c1C | > 40 |  | 
11 | > 40 | 21.8 |  |  | CCNc1cc(-c2ccc(CC(=O)NCc3nc4c(C(N)=O)cccc4[nH]3)cc2)cc(C(=O)NCc2c(C)cc(C)[nH]c2=O)c1C | > 40 |  | 
12 | > 40 | > 40 |  |  | CCn1ccc2c(C(=O)NCc3c(C)cc(C)[nH]c3=O)cc(-c3ccc(-c4nc5c(C(N)=O)cccc5[nH]4)cc3)cc21 | > 40 |  | 
13 | 13.2 | 19.2 | 8.28 | 6.32 | CC[C@H](C)n1cc(C)c2c(C(=O)NCc3c(C)cc(C)[nH]c3=O)cc(-c3ccc(N4CCNCC4)nc3)cc21 [GSK2816126] | > 40 | > 40 | 57.2
14 | > 40 | > 40 |  |  | CCNc1cc(-c2ccc(CC(=O)NCCCCCc3nc4c(C(N)=O)cccc4[nH]3)cc2)cc(C(=O)NCc2c(C)cc(C)[nH]c2=O)c1C | > 40 |  | 
